Laboratory results reported in patent US20250161266A1, “Antibacterial 4.5 Diaryl-Thiophen-2-YL Hexafluoropropan-2-OLS” (priority 2022, published 2025).
“And” between values parts separate entries of the source, which are not always exact repeats. Equal values may be shown once.

System: Bacillus anthracis
Assay type: cell-based

Compound	MIC	MIC50	MIC90
Cc1cc(Cl)ccc1-c1sc(C(O)(C(F)(F)F)C(F)(F)F)cc1-c1ccc(Cl)cc1CO [DNM95A, 2-(4-(4-chloro-2-(hydroxymethyl)phenyl)-5-(4-chloro-2-methylphenyl)thiophen-2-yl)-1,1,1,3,3,3-hexafluoropropan-2-ol]	1 µg·mL and 0.5 µg·mL	1 µg·mL	1 µg·mL
Cc1cc(Cl)ccc1-c1cc(C(O)(C(F)(F)F)C(F)(F)F)sc1-c1ccc(Cl)cc1CO [DNM94A, 2-(5-(4-chloro-2-(hydroxymethyl)phenyl)-4-(4-chloro-2-methylphenyl)thiophen-2-yl)-1,1,1,3,3,3-hexafluoropropan-2-ol]	1 µg·mL	1 µg·mL	1 µg·mL
colistin [reference compound]		GT64 μg ml	GT64 μg ml
